This is an account of results in patent US8642801B2 (BHI Limited Partnership, priority 2003, dated 2014).

Structures can show the parent of a compound that is named as a salt.

One assay deals with T1, Aβ1-40 (Homo sapiens, UniProt P05067).
T1 construct: most is normally secreted as a 40 (“Aβ1-40”) or 42 (“Aβ1-42”) amino acid peptide
T1 sequence (P05067 672-711 limits assumed): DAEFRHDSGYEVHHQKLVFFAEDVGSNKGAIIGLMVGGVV
The assay is described as follows: MS (electrospray mass spectrometry) binding assay for Aβ40. As to conditions: Table 3B; 30 μM Aβ peptide, 150 μM compound. The source says: (§1) The ability of a therapeutic compound of the invention to inhibit an interaction between an amyloidogenic protein and a glycoprotein or proteoglycan constituent of a basement membrane can be assessed by an in vitro binding assay, such as that described in U.S. Pat. No. 5,164,295, the contents of which are hereby incorporated by reference. Alternatively, the ability of a compound to bind to an amyloidogenic protein or to inhibit the binding of a basement membrane constituent (e.g., HSPG) to an amyloidogenic protein (e.g., Aβ) can be measured using a mass spectrometry assay where soluble protein, e.g., Aβ, IAPP, β2M is incubated with the compound. A compound which binds to, e.g., Aβ, will induce a change in the mass spectrum of the protein. Exemplary protocols for a mass spectrometry assay employing Aβ and IAPP can be found in the Examples, the results of which are provided in Table 3. The protocol can readily be modified to adjust the sensitivity of the data, e.g., by adjusting the amount of protein and/or compound employed. Thus, e.g., binding might be detected for test compounds noted as not having detectable binding employing less sensitive test protocols.
(§2) The test compounds were synthesized and screened by mass spectrometry (“MS”) assays, except for selected compounds which were purchased from a commercial source. The MS assay gives data on the ability of compounds to bind to proteins, in this example, to β-amyloid and IAPP.
(§3) The pH value of each sample was adjusted to 7.4 (±0.2) by addition of 0.1% aqueous sodium hydroxide. The solutions were then analyzed by electrospray ionization mass spectrometry using a Waters ZQ 4000 mass spectrometer. Samples were introduced by direct infusion at a flow-rate of 25 μL/min within 2 hr. after sample preparation. The source temperature was kept at 70° C. and the cone voltage was 20 V for all the analysis. Data were processed using Masslynx 3.5 software. The MS assay gives data on the ability of compounds to bind to soluble Aβ, whereas the ThT, EM and CD assays give data on inhibition of fibrillogenesis. In Table 3, a blank box means that a value was not determined for that compound in that assay.
For `CCCCCCNC(=O)NCCCS(=O)(=O)[O-].[Na+]` [AI], the “MS binding Aβ1-40” value is recorded as “+++ (60-100% binding=(+++))”.

The assay is the same for the next values; noted with them: Table 3D; 40 μM Aβ peptide, 400 μM compound.
Take `O=S(=O)(O)CCCNC1CN2CCC1CC2` (centres unmarked) [HQ]: the “MS binding Aβ1-40” value was “+ (20-39% binding=(+))”.

A further assay addresses T2, IAPP (Homo sapiens, UniProt P10997).
T2 construct: which is a 37 amino acid peptide, derived from a larger precursor peptide, called pro-IAPP
T2 sequence (P10997 34-70 limits assumed): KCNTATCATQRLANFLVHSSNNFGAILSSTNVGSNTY
The assay is described as follows: MS (electrospray mass spectrometry) binding assay for IAPP. As to conditions: Table 3C; 20 μM Aβ peptide, 100 μM compound (so in the source).
Text: as §1, §2
as §3, with “In the MS assay for Aβ40, samples were prepared as aqueous solutions (adding 20% ethanol if necessary to solubilize in water), 200 μM of a test compound and 20 μM of solubilized Aβ40, or 400 μM of a test compound and 40 μM of solubilized Aβ40. The pH” for “The pH”
The key below describes the codes used in Table 3A to quantify the binding based on the intensity of the absorption.
Regarding `CC(C)(C)NCCCCS(=O)(=O)O` [LD, 4-(tert-butylamino)-1-butanesulfonic acid], the “MS binding IAPP” value is “++ (40-74% binding=(++))”.
With `CCCCCCCCNCC(O)CS(=O)(=O)O` (centres unmarked) [JW], the “MS binding IAPP” value is listed as “++ (40-74% binding=(++))”.
With `CCCC(CO)NCC(O)CS(=O)(=O)O` (centres unmarked), the “MS binding IAPP” value is recorded as “++ (40-74% binding=(++))”.
On to `CCNCC(O)CS(=O)(=O)O` (centres unmarked) [JU, 3-(ethylamino)-2-hydroxy-1-propanesulfonic acid], for which the “MS binding IAPP” value is given as “++ (40-74% binding=(++))”.
With `O=S(=O)(O)CCCCNC1CCCc2ccccc21` (centres unmarked) [LG], the “MS binding IAPP” value is “++ (40-74% binding=(++))”.
With `CCCCCCCCNCCCCS(=O)(=O)O` [LJ, 4-(octylamino)-1-butanesulfonic acid], the “MS binding IAPP” value was “+++ (75-100% binding=(+++))”.
Consider `CCCCCCCCNCCC(C)S(=O)(=O)O` (centres unmarked) [JG, 4-(octylamino)-2-butanesulfonic acid], for which the “MS binding IAPP” value is recorded as “+++ (75-100% binding=(+++))”.
In the case of `CCCC(CO)NCCCCS(=O)(=O)O` (racemic) [LL, 4-[(dl)-1-hydroxy-2-pentyl]amino-1-butanesulfonic acid], the “MS binding IAPP” value was “++ (40-74% binding=(++))”.
`CC(CCN1CCCCC1)S(=O)(=O)O` (centres unmarked) [JS, 4-piperidin-1-yl-2-butanesulfonic acid]: the “MS binding IAPP” value was “+ (20-39% binding=(+))”.
On the same count and under the same terms, to `CN(C)CCCCS(=O)(=O)O` [LH, 4-Dimethylamino-1-butanesulfonic acid] belongs “+ (20-39% binding=(+))”.
In the case of `O=S(=O)([O-])CC(O)C[N+]12CCC(CC1)CC2` (centres unmarked) [JX, 1-(3-sulfo-2-hydroxypropyl) quinuclidinium, inner salt], the “MS binding IAPP” value is “++ (40-74% binding=(++))”.
With `O=S(=O)(O)CC(O)CNC1CC2CCC1C2` (centres unmarked) [KI, 3-(bicyclo[2.2.1]hept-2-ylamino)-2-hydroxy-1-propanesulfonic acid], the “MS binding IAPP” value is “+ (20-39% binding=(+))”.
As for `O=S(=O)(O)CCCCCNC1CC2CCC1C2` (centres unmarked) [LQ], the “MS binding IAPP” value was “+++ (75-100% binding=(+++))”.
In the case of `O=S(=O)(O)CCCNC(Cc1ccccc1)c1ccccc1` (centres unmarked) [JC], the “MS binding IAPP” value is “+ (20-39% binding=(+))”.
`O=S(=O)([O-])CCCC[N+]12CCC(CC1)CC2` [LF]: the “MS binding IAPP” value is reported as “+ (20-39% binding=(+))”.
`O=S(=O)([O-])CC(O)CNCc1ccccc1.[Na+]` (centres unmarked) [JY]: the “MS binding IAPP” value is “+++ (75-100% binding=(+++))”.
`O=S(=O)(O)CC(O)CN1CCCCC1` (centres unmarked) [KA, 2-hydroxy-3-piperidin-1-ylpropane-1-sulfonic acid]: the “MS binding IAPP” value is given as “++ (40-74% binding=(++))”.
Take `CC(C)CCNCC(O)CS(=O)(=O)O` (centres unmarked) [KK, 2-hydroxy-3-[(3-methylbutyl)amino]-1-propane sulfonic acid]: the “MS binding IAPP” value is “+++ (75-100% binding=(+++))”.
On to `O=S(=O)(O)CC(O)CNC1CCCc2ccccc21` (centres unmarked) [JZ, 2-hydroxy-3-(1,2,3,4-tetrahydronaphthalen-1-ylamino)propane-1-sulfonic acid], for which the “MS binding IAPP” value is listed as “+++ (75-100% binding=(+++))”.
As for `COc1ccc(CNCCCCS(=O)(=O)O)cc1OC` [LM], the “MS binding IAPP” value is “+++ (75-100% binding=(+++))”.
Consider `O=S(=O)(O)CCCCNC12CC3CC(CC(C3)C1)C2` [LI, 4-(adamantyl)amino-1-butanesulfonic acid], for which the “MS binding IAPP” value was “+++ (75-100% binding=(+++))”.
`CCNCCCCS(=O)(=O)O` [LE, 4-(ethylamino)-1-butanesulfonic acid]: the “MS binding IAPP” value was “++ (40-74% binding=(++))”.
As to `CN(C)CC(O)CS(=O)(=O)[O-].[Na+]` (centres unmarked) [JT, 3-(dimethylamino)-2-hydroxy-1-propane sulfonic acid, sodium salt], the “MS binding IAPP” value was “+ (20-39% binding=(+))”.
As for `CN(C)CCS(=O)(=O)O` [KQ], the “MS binding IAPP” value is reported as “+ (20-39% binding=(+))”.

For another assay, the target named is T2, IAPP. Described as above. The settings on record: Table 3B; 30 μM Aβ peptide, 150 μM compound (so in the source).
In the case of `CC(C)CCNCCC(C)S(=O)(=O)O` (centres unmarked) [KH, 4-[(3-methylbutyl)amino]-2-butanesulfonic acid], the “MS binding IAPP” value was “++ (40-59% binding=(++))”.
As for `O=S(=O)(O)CCCCNC1CCCCC1` [LK, 4-(cyclohexylamino)-1-butanesulfonic acid], the “MS binding IAPP” value was “++ (40-59% binding=(++))”.
Consider `O=S(=O)([O-])CC(O)CNC12CC3CC(CC(C3)C1)C2.[Na+]` (centres unmarked) [KB, 4-(adamantan-1-ylamino)-2-hydroxy-1-propanesulfonic acid], for which the “MS binding IAPP” value was “+++ (60-100% binding=(+++))”.
On to `CC(C)(C)NCCS(=O)(=O)O` [KS], for which the “MS binding IAPP” value is “+++ (60-100% binding=(+++))”.
Still for that read-out and setting: to `CC(CCNCc1ccccc1)S(=O)(=O)[O-].[Na+]` (centres unmarked) [JP, 4-(benzylamino)-2-butanesulfonic acid, sodium salt] belongs “+++ (60-100% binding=(+++))”.
As to `CCNCCC(C)S(=O)(=O)O` (centres unmarked) [JQ, 4-(ethylamino)-2-butanesulfonic acid, sodium salt], the “MS binding IAPP” value is reported as “+++ (60-100% binding=(+++))”.
Regarding `N[C@@H](Cc1ccccc1)C(=O)NCCCS(=O)(=O)O` [KN], the “MS binding IAPP” value is listed as “++ (40-59% binding=(++))”.

Still in this assay, the particulars now being: Table 3D; 40 μM Aβ peptide, 400 μM compound (so in the source).
Regarding `O=S(=O)(O)CCCN1CCc2ccc(Br)cc2C1` [IN], the “MS binding IAPP” value is on record as “+ (20-39% binding=(+))”.
Same read-out and setting: the same measure for `O=S(=O)(O)CCCN1CCc2c(I)cccc2C1` [IP]: “+ (20-39% binding=(+))”; for `O=[N+]([O-])c1ccc2[nH]c3c(c2c1)CCN(CCCCS(=O)(=O)O)C3` [KY]: “+ (20-39% binding=(+))”; for `Nc1ccc2[nH]c3c(c2c1)CCN(CCCCS(=O)(=O)O)C3` [KW]: “+ (20-39% binding=(+))”.
Same read-out and setting: to `Nc1cccc2c1CCN(CCCS(=O)(=O)O)C2` [IH] belongs “+ (20-39% binding=(+))”.
Consider `O=S(=O)(O)CCCn1cc[n+](CCCS(=O)(=O)O)c1` [HS], for which the “MS binding IAPP” value is reported as “− (<20%=(−))”.
For `O=S(=O)(O)CCCCN1CCc2c([nH]c3ccc(Br)cc23)C1` [KX], the “MS binding IAPP” value is “+ (20-39% binding=(+))”.
Same read-out and setting: the same measure for `[N-]=[N+]=NCCCS(=O)(=O)O` [HN]: “− (<20%=(−))”; for `O=S(=O)([O-])CCC[n+]1ccn(CCCS(=O)(=O)O)c1` [HP]: “− (<20%=(−))”.
Regarding `O=[N+]([O-])c1cccc2c[n+](CCCS(=O)(=O)[O-])ccc12` [IJ], the “MS binding IAPP” value was “+ (20-39% binding=(+))”.
As for `O=[N+]([O-])c1ccc2[nH]c3c(c2c1)CCN(CCCS(=O)(=O)O)C3` [IT], the “MS binding IAPP” value is reported as “+ (20-39% binding=(+))”.
In the case of `NCCCCC(NCCCS(=O)(=O)O)C(=O)O` (centres unmarked) [HY], the “MS binding IAPP” value is “− (<20%=(−))”.
As to `NCCCCCS(=O)(=O)O` [LP], the “MS binding IAPP” value is “+++ (75-100% binding=(+++))”.
In the case of `C[N+](C)(CCCS(=O)(=O)[O-])CCCS(=O)(=O)O` [IF], the “MS binding IAPP” value is given as “− (<20%=(−))”.
With `O=[N+]([O-])c1ccc2c(c1)CN(CCCS(=O)(=O)O)CC2` [IL], the “MS binding IAPP” value is “+ (20-39% binding=(+))”.
For the molecule `Nc1ccc2c(c1)CN(CCCS(=O)(=O)O)CC2` [IM], the “MS binding IAPP” value was “− (<20%=(−))”.
Turning to `O=C(O)c1ccc2[nH]c3c(c2c1)CCN(CCCS(=O)(=O)O)C3` [IU], the “MS binding IAPP” value is “− (<20%=(−))”.
Same read-out and setting: the same measure for `O=C(NCCCCS(=O)(=O)O)OCc1ccccc1` [KV]: “+ (20-39% binding=(+))”; for `COC(=O)[C@@H](Cc1ccc(I)cc1)NCCCS(=O)(=O)O` [IB]: “+ (20-39% binding=(+))”.
Consider `CC(=O)N(C(C)=O)c1cccc2c[n+](CCCS(=O)(=O)[O-])ccc12` [II], for which the “MS binding IAPP” value is “− (<20%=(−))”.
